In ChEMBL document CHEMBL4507327 (2021):
Values belong to the molecule of their own block, whether it stands above or below them.

Legend:
[1] = target: ATP-sensitive inward rectifier potassium channel 11 (Cricetulus griseus) (UniProt A0A3L7HHE1); test: Inhibition of Potassium Channel [KATP] at 10 µM in the Eurofins-Panlabs radioligand binding assay (Eurofins_assay_265600); details: Cricetinae; Compound concentration 10.0 uM
[2] = target: Protein-tyrosine kinase 2-beta (Homo sapiens, UniProt Q14289); test: PYK2(PT2BLHF1) Takeda global kinase panel
[3] = target: 5-hydroxytryptamine receptor 2B (Homo sapiens) (UniProt P41595); details: Compound concentration 10.0 uM
[4] = target: Dual specificity protein kinase CLK2 (Homo sapiens, UniProt P49760); test: CLK2(CLK2LGF1) Takeda global kinase panel
[5] = target: Calcium/calmodulin-dependent protein kinase type IV (Homo sapiens, UniProt Q16566); test: CaMK4(CAM4LGY1) Takeda global kinase panel
[6] = target: Serine/threonine-protein kinase PINK1, mitochondrial (Homo sapiens, UniProt Q9BXM7); test: PINK1(PIN1PHRE) Takeda global kinase panel
[7] = target: Serine/threonine-protein kinase PLK1 (Homo sapiens, UniProt P53350); test: PLK1(PLK1LGY1) Takeda global kinase panel
[8] = target: Activin receptor type-1-like (Homo sapiens, UniProt P37023); test: ALK1(ACL1LGF1) Takeda global kinase panel
[9] = target: Cannabinoid receptor 1 (Homo sapiens) (UniProt P21554); test: Inhibition of Cannabinoid CB1 at compound concentration of 10.0 uM in the Eurofins-Panlabs radioligand binding assay (Eurofins_assay_217050); design: ligand concentration 2 nM; details: Compound concentration 10.0 uM
[10] = target: PAS domain-containing serine/threonine-protein kinase (Homo sapiens, UniProt Q96RG2); test: PASK(PASKPHY1) Takeda global kinase panel
[11] = target: Tyrosine-protein kinase JAK3 (Homo sapiens, UniProt P52333); test: JAK3(JAK3LGRG) Takeda global kinase panel
[12] = target: Microtubule-associated serine/threonine-protein kinase 4 (Homo sapiens, UniProt O15021); test: MAST4(MAS4LGRD) Takeda global kinase panel
[13] = target: B2 bradykinin receptor (Homo sapiens) (UniProt P30411); details: Compound concentration 10.0 uM
[14] = target: Mitogen-activated protein kinase kinase kinase 5 (Homo sapiens, UniProt Q99683); test: ASK [MAP3K5(M3K5LGA1)] Takeda global kinase panel
[15] = target: High affinity nerve growth factor receptor (Homo sapiens, UniProt P04629); test: TRKA(NTR1LGN1) Takeda global kinase panel
[16] = target: Tyrosine-protein kinase Fes/Fps (Homo sapiens, UniProt P07332); test: Fes(FES1LHY1) Takeda global kinase panel
[17] = target: Glycogen synthase kinase-3 beta (Homo sapiens, UniProt P49841); test: GSK3beta(GS3BLGM1) Takeda global kinase panel
[18] = target: Serine/threonine-protein kinase RIO2 (Homo sapiens, UniProt Q9BVS4); test: RIOK2(RIO2LGF1) Takeda global kinase panel
[19] = target: Mixed lineage kinase domain-like protein (Homo sapiens, UniProt Q8NB16); test: MLKL(MLKLPHY1) Takeda global kinase panel
[20] = target: G protein-coupled receptor kinase 4 (Homo sapiens, UniProt P32298); test: GRK4(GRK4LGRI) Takeda global kinase panel
[21] = target: Serine/threonine-protein kinase pim-3 (Homo sapiens, UniProt Q86V86); test: Pim3(PIM3LGP1) Takeda global kinase panel
[22] = target: Serine/threonine-protein kinase N1 (Homo sapiens, UniProt Q16512); test: PKN1 [PRK1(PKN1LGY1)] Takeda global kinase panel
[23] = target: Serine/threonine-protein kinase LATS2 (Homo sapiens, UniProt Q9NRM7); test: LATS2(LAT2LGY1) Takeda global kinase panel
[24] = target: Serine/threonine-protein kinase Nek9 (Homo sapiens, UniProt Q8TD19); test: Nek9(NEK9LGF1) Takeda global kinase panel
[25] = target: Serine/threonine-protein kinase 26 (Homo sapiens, UniProt Q9P289); test: MST4(MST4LGC1) Takeda global kinase panel
[26] = target: Histamine H1 receptor (Homo sapiens) (UniProt P35367); details: Compound concentration 10.0 uM
[27] = target: Mitogen-activated protein kinase 8 (Homo sapiens, UniProt P45983); test: JNK1(MAP8LGF1) Takeda global kinase panel
Rattus norvegicus = organism: Rattus norvegicus; test: Inhibition of Rolipram at 10 µM in the Eurofins-Panlabs radioligand binding assay (Eurofins_assay_268811); assay type: protein assay; design: ligand concentration 1.8 nM; details: Compound concentration 10.0 uM
[28] = target: Mu-type opioid receptor (Homo sapiens) (UniProt P35372); details: Compound concentration 10.0 uM
[29] = target: Death-associated protein kinase 1 (Homo sapiens, UniProt P53355); test: DAPK1(DAP1LGF1) Takeda global kinase panel
[30] = target: Fibroblast growth factor receptor 4 (Homo sapiens, UniProt P22455); test: FGFR4(FGF4LGF1) Takeda global kinase panel
Activin receptor type-2A = Activin receptor type-2A (Homo sapiens, UniProt P27037); test: ACtR2(AC2ALGE1) Takeda global kinase panel
[31] = target: Neuropeptide Y receptor type 2 (Homo sapiens) (UniProt P49146); test: Inhibition of Neuropeptide Y Y2 at 10 µM in the Eurofins-Panlabs radioligand binding assay (Eurofins_assay_257110); details: Compound concentration 10.0 uM
[32] = target: Receptor tyrosine-protein kinase erbB-4 (Homo sapiens, UniProt Q15303); test: HER4(ERB4CGF1) Takeda global kinase panel
[33] = target: Cyclin-dependent kinase 7 (Homo sapiens, UniProt P50613); test: CDK7(CDK7CGS1) Takeda global kinase panel
[34] = target: Tyrosine-protein kinase CSK (Homo sapiens, UniProt P41240); test: CSK(CSK1LGF1) Takeda global kinase panel
[35] = target: Macrophage colony-stimulating factor 1 receptor (Homo sapiens, UniProt P07333); test: FmS [CSFR(CSF1LGC1)] Takeda global kinase panel
[36] = target: Phosphatidylinositol 4,5-bisphosphate 3-kinase catalytic subunit beta isoform (Homo sapiens, UniProt P42338); test: PIK3CB(PI3BCGRK) Takeda global kinase panel
[37] = target: Serine/threonine-protein kinase ULK3 (Homo sapiens, UniProt Q6PHR2); test: ULK3(ULK3LGF1) Takeda global kinase panel
[38] = target: Serine/threonine-protein kinase MRCK alpha (Homo sapiens, UniProt Q5VT25); test: MRCKalpha(CD4ALGY1) Takeda global kinase panel
[39] = target: Protein kinase C beta type (Homo sapiens, UniProt P05771); test: PKCbeta(PRKBPHY3) Takeda global kinase panel
Ephrin type-A receptor 3 = Ephrin type-A receptor 3 (Homo sapiens, UniProt P29320); test: EphA3(EPA3LGD5) Takeda global kinase panel
[40] = target: Death-associated protein kinase 3 (Homo sapiens, UniProt O43293); test: DAPK3(DAP3LGP1) Takeda global kinase panel
[41] = target: Peripheral plasma membrane protein CASK (Homo sapiens, UniProt O14936); test: CASK(CASKLGY1) Takeda global kinase panel

Sequence of Serine/threonine-protein kinase RIO2 (Q9BVS4 whole entry, the tested form may be a part): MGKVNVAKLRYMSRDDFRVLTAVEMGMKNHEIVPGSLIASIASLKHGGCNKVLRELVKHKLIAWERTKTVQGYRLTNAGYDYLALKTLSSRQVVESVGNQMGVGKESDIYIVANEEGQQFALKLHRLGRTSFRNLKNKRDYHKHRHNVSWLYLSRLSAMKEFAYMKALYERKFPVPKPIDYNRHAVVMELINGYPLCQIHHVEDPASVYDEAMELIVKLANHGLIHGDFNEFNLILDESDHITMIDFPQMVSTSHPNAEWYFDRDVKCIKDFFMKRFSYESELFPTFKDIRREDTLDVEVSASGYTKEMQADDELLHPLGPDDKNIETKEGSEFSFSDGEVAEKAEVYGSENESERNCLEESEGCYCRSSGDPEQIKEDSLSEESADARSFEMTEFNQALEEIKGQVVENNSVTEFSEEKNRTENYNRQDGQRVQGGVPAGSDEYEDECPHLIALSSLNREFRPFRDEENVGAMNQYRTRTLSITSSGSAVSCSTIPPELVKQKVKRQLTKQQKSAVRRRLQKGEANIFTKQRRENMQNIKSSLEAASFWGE
Sequence of Microtubule-associated serine/threonine-protein kinase 4 (O15021 whole entry): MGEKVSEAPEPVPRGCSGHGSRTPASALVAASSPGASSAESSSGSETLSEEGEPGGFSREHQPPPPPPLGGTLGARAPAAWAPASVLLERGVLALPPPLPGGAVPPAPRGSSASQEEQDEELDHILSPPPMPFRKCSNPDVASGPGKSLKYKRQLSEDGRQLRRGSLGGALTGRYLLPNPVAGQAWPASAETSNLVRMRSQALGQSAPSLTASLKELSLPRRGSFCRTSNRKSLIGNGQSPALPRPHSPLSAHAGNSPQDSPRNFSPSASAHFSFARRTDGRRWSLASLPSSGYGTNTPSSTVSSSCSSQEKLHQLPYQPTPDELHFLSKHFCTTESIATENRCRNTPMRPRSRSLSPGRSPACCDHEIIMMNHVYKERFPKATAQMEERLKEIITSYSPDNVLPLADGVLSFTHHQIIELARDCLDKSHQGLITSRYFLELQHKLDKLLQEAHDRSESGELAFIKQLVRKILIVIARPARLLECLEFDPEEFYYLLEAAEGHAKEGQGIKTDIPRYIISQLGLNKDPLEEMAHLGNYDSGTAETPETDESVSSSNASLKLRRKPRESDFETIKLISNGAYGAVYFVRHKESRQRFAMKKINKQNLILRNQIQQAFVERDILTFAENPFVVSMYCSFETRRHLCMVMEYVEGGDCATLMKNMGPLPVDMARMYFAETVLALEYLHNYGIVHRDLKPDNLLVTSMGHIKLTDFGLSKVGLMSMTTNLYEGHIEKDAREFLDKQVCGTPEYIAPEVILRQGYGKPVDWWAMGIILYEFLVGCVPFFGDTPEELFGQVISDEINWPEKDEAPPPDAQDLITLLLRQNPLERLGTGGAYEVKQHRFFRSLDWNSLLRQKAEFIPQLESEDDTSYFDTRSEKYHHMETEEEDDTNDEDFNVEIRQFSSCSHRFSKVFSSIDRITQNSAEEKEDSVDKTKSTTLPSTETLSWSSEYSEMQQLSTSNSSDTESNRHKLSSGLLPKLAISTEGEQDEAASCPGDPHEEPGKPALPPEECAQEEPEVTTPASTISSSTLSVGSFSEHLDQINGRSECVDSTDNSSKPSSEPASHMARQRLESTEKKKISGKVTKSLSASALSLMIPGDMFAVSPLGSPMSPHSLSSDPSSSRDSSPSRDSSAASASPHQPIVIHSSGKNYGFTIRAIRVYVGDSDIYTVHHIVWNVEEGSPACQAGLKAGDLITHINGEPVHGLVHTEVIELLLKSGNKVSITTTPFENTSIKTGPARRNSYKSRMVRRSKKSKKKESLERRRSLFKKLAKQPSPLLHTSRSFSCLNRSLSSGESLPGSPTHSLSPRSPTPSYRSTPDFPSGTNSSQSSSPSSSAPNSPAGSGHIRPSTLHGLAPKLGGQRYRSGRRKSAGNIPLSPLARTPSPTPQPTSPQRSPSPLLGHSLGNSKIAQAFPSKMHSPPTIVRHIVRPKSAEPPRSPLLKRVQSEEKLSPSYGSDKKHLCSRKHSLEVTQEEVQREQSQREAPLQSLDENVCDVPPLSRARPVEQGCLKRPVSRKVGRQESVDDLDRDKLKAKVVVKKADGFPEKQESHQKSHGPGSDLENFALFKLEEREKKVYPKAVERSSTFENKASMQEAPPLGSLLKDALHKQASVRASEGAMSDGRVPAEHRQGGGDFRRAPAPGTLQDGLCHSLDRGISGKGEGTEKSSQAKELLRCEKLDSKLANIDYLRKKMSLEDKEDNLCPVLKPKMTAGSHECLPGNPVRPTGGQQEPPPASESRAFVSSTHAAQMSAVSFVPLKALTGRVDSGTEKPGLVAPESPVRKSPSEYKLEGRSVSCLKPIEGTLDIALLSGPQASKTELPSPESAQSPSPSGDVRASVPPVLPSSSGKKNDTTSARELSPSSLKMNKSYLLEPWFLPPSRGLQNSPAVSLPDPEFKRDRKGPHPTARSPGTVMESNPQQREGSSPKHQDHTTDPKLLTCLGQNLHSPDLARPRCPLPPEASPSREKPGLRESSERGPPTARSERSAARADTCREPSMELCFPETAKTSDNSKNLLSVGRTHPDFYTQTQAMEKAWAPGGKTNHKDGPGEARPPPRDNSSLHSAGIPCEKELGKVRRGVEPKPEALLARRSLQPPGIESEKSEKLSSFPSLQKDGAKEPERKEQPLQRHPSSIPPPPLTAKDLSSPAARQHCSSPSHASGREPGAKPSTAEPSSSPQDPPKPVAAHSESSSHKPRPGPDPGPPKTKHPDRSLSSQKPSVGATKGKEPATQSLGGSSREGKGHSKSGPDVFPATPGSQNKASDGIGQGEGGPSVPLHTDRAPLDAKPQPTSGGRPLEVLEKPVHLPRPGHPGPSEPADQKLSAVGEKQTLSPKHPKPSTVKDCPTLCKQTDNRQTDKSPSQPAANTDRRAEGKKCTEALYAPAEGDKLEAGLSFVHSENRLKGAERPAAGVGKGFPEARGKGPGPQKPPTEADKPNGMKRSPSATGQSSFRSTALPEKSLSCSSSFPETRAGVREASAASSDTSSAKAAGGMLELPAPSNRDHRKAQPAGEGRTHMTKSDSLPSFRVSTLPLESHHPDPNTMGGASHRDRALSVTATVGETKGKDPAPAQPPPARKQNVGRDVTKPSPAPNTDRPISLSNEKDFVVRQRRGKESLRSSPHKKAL
Sequence of Neuropeptide Y receptor type 2 (Homo sapiens) (P49146 whole entry): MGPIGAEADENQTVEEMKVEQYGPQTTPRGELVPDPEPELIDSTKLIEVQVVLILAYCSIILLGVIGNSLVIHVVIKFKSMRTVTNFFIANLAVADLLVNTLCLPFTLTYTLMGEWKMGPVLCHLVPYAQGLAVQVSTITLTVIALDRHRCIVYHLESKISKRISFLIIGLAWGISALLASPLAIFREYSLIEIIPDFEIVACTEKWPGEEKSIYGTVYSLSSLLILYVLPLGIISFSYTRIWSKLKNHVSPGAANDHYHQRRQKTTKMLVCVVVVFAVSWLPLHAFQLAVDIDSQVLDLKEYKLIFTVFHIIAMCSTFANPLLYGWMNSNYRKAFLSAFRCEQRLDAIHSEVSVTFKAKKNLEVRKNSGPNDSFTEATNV
Sequence of Macrophage colony-stimulating factor 1 receptor (P07333 whole entry, canonical isoform): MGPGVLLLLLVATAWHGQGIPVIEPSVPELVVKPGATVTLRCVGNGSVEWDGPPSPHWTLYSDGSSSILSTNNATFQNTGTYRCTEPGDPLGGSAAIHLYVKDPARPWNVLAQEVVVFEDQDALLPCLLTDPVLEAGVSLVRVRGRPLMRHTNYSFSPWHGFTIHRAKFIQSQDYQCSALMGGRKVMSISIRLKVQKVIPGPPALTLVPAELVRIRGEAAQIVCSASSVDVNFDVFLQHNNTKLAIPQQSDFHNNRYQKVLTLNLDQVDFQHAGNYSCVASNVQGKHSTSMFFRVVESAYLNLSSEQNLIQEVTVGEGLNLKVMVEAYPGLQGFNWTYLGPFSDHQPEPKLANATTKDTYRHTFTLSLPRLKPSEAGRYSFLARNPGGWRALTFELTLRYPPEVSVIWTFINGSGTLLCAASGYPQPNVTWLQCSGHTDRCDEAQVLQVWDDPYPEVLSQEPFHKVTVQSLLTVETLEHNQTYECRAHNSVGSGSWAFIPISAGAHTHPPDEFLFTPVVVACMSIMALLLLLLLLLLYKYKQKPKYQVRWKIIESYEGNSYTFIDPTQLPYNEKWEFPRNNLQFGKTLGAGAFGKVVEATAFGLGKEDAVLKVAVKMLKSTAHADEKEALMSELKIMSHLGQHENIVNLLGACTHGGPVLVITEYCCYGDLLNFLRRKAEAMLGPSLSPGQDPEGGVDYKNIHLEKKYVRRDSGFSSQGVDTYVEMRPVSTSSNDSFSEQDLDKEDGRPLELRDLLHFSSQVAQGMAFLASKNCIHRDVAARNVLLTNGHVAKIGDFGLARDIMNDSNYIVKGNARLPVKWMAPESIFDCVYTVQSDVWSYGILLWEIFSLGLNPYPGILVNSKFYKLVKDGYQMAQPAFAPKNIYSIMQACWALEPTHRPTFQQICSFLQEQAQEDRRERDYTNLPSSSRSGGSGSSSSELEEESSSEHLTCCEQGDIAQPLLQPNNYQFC
Sequence of Glycogen synthase kinase-3 beta (P49841 whole entry): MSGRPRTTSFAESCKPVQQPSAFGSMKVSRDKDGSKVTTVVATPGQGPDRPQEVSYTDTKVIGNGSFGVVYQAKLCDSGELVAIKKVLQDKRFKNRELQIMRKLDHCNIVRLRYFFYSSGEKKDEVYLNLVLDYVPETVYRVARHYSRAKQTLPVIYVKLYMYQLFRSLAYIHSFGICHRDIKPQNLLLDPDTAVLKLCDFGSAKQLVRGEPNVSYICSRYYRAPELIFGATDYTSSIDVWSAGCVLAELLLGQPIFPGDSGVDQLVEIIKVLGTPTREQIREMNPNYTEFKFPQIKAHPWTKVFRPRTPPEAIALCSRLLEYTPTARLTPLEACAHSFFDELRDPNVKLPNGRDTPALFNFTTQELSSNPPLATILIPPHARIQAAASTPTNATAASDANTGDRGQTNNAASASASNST

Compound: CN1C(=O)[C@@H](N2CCc3cn(Cc4ccccc4)nc3C2=O)COc2ccccc21 [TP-030-1]
inhibition [1]: 6%
IC50 [2]: 1000 nM
inhibition [3]: 6%
IC50 [4]: 1000 nM
IC50 [5]: 1000 nM
IC50 [6]: 1000 nM
IC50 [7]: 1000 nM
IC50 [8]: 1000 nM
inhibition [9]: 5%
IC50 [10]: 1000 nM
IC50 [11]: 1000 nM
IC50 [12]: 1000 nM
inhibition [13]: 4%
IC50 [14]: 1000 nM
IC50 [15]: 1000 nM
IC50 [16]: 1000 nM
IC50 [17]: 1000 nM
IC50 [18]: 1000 nM
IC50 [19]: 1000 nM
IC50 [20]: 1000 nM
IC50 [21]: 1000 nM
IC50 [22]: 1000 nM
IC50 [23]: 1000 nM
IC50 [24]: 1000 nM
IC50 [25]: 1000 nM
inhibition [26]: 3%
IC50 [27]: 1000 nM
inhibition (Rattus norvegicus): 0%
inhibition [28]: 19%
IC50 [29]: 1000 nM
IC50 [30]: 1000 nM
IC50 (Activin receptor type-2A): 1000 nM
inhibition [31]: 2%
IC50 [32]: 1000 nM
IC50 [33]: 1000 nM
IC50 [34]: 1000 nM
IC50 [35]: 1000 nM
IC50 [36]: 1000 nM
IC50 [37]: 1000 nM
IC50 [38]: 1000 nM
IC50 [39]: 1000 nM
IC50 (Ephrin type-A receptor 3): 1000 nM
IC50 [40]: 1000 nM
IC50 [41]: 1000 nM

inhibition [1]: 5%
IC50 [2]: 1000 nM
inhibition [3]: -2%
IC50 [4]: 1000 nM
IC50 [5]: 1000 nM
IC50 [6]: 1000 nM
IC50 [7]: 1000 nM
IC50 [8]: 1000 nM
inhibition [9]: -5%
IC50 [10]: 1000 nM
IC50 [11]: 1000 nM
IC50 [12]: 1000 nM
inhibition [13]: -4%
IC50 [14]: 1000 nM
IC50 [15]: 1000 nM
IC50 [16]: 1000 nM
IC50 [17]: 1000 nM
IC50 [18]: 1000 nM
IC50 [19]: 1000 nM
IC50 [20]: 1000 nM
IC50 [21]: 1000 nM
IC50 [22]: 1000 nM
IC50 [23]: 1000 nM
IC50 [25]: 1000 nM
inhibition [26]: 8%
IC50 [27]: 1000 nM
inhibition (Rattus norvegicus): 1%
inhibition [28]: 4%
IC50 [30]: 1000 nM
IC50 (Activin receptor type-2A): 1000 nM
inhibition [31]: 1%
IC50 [32]: 1000 nM
IC50 [33]: 1000 nM
IC50 [34]: 1000 nM
IC50 [35]: 1000 nM
IC50 [36]: 1000 nM
IC50 [37]: 1000 nM
IC50 [38]: 1000 nM
IC50 [39]: 1000 nM
IC50 (Ephrin type-A receptor 3): 1000 nM
IC50 [41]: 1000 nM
Compound: CN1C(=O)[C@@H](N2CCc3cn(CC4CCS(=O)(=O)CC4)nc3C2=O)COc2ccccc21 [TP-030n]
IC50 [24]: 1000 nM
IC50 [29]: 1000 nM
IC50 [40]: 1000 nM
